Key:
[1] = tested on: human corneal (HCE) cells; assay: Cell viability (XTT assay) after hyperosmolar stress, HCE cells; assay type: cell-based; details: at 0.005% and 0.001% (w/v), 4 h and 8 h post-stress; FIG. 1
Description: A study was carried out to determine the osmoprotective capacity of sodium lipoate (A) during hyperosmolar stress on human conjunctival (WKD) and corneal (HCE) cells. In a second phase, tests were carried out to compare the effect of lipoic acid, glycerin (B), and taurine (C), individually and when the molecules were combined, on HCE cells under hyperosmolar stress conditions. The osmoprotective activity of A, then A with B and C, was evaluated by measuring cell viability in particular. To that end, cells were preincubated for 17 h with the test substance(s). Next, the medium was removed and the cells were subjected to hyperosmolar stress by addition of sodium chloride (100 mM NaCl) to the culture medium (M199 for the WKD cells and KSFM for the HCE cells). Cell-growth control cells were contacted with isotonic medium. Cell viability was analyzed pre-osmotic stress (0 h) in order to measure the effect of the molecules remaining in contact with the cells during the 17 h of incubation, then at 4 h, 8 h and 24 h post-induction of osmotic stress. The cell viability measurement was carried out via an XTT assay. Various concentrations of A were tested for the “molecule alone” tests: 0.0005%, 0.001%, 0.005%, 0.01% and 0.05% w/v. […] To ensure the validity and the significance of the data, the results obtained were analyzed statistically. […]

corneal cells = assay: Antioxidant effect on corneal cells; assay type: cell-based

## O=C(O)CCCCC1CCSS1 (centres unmarked) [Sodium Lipoate, 5-(1,2-dithiolan-3-yl)pentanoic acid]
[1]
  Osmoprotective activity against osmotic stress: high osmoprotective activity
Corneal cells
  Antioxidant effect: rather weak
